Measurements from paper PMC7395068, “The evolution of strategies to minimise the risk of human drug-induced liver injury (DILI) in drug discovery and development” (Archives of Toxicology, 2020).
Like-named read-outs stand apart in the source and are kept apart here.

How the values were obtained:
[1] = in vivo; cited from earlier work
PHH = details: cited from earlier work
hLiMTs [2] = details: cited from earlier work
[3] = cited from earlier work
PHH spheroids = details: In vitro Assay; ref Vorrink 2018; cited from earlier work
[4] = tested on: isolated mouse liver mitochondria; details: In vitro Assay; ref Porceddu 2012; cited from earlier work
HepG2 cells [5] = details: In vitro Assay; ref O'Brien 2006; cited from earlier work
HepG2 cells [6] = details: In vitro Assay; ref Persson 2013; cited from earlier work
[7] = tested on: primary human hepatocytes, NIH3T3 fibroblasts, BSEP, CYP3A4; details: In vitro Assay; ref Schadt 2015; cited from earlier work
human hepatocytes = details: In vitro Assay; ref Xu 2008; cited from earlier work
rBsep = details: cited from earlier work
hLiMTs [8] = assay: Combined HCI (HCS) and cellular ATP 3D assay in hLiMTs; details: Homo sapiens
HepaRG spheroids = assay: Combined HCI (HCS) and cellular ATP 3D assay in HepaRG spheroids; details: Homo sapiens, HepaRG
[9] = In vitro Assay, ref Proctor 2017

For `OC(CCN1CCCC1)(c1ccccc1)C1CCCCC1` (stereo not drawn) [procyclidine], the “DILI +VE (5-8), DILI -VE (-4)” value [1] is listed as “-VE”, the DILI severity category [1] is listed as “vNo-DILI-Concern” and the “PHH ATP <100uM” value (PHH) is listed as “+VE (key: +VE: IC50 threshold of 100 µM)”. The “hLiMTs ATP <100uM” value (hLiMTs [2]) was “-VE” and the “In vivo DILI” value ([3]; in vivo) was “-VE”.
In the case of `CC(C)(C)c1ccc(C(O)CCCN2CCC(C(O)(c3ccccc3)c3ccccc3)CC2)cc1` (stereo not drawn) [terfenadine], the “hLiMTs ATP <20 x Cmax” value (PHH spheroids) is listed as “-VE”.
In the case of `CC(C)c1c(C(=O)Nc2ccccc2)c(-c2ccccc2)c(-c2ccc(F)cc2)n1CC[C@@H](O)C[C@@H](O)CC(=O)O` [atorvastatin], the “PHH ATP <100uM” value (PHH; [9]) is given as “-VE”, the “hLiMTs ATP <100uM” value (hLiMTs [2]; [9]) is given as “+VE (IC50 threshold of 100 µM)” and the “in vitro data EC20<=2uM” value [4] is given as “+VE”.
In the case of `[H]/N=C(/N)N/C(=N/[H])NCCc1ccccc1` [phenformin], the “Structural based (HCI)” value (HepG2 cells [5]) is given as “+VE (lowest HCI endpoint IC50 (or in the absence of dose–response < 100 µM) < 30 × total human plasma exposure levels (Cmax.tot))”, the “PHH ATP <100uM” value (PHH; [9]) is given as “+VE (IC50 threshold of 100 µM)” and the “hLiMTs ATP <100uM” value (hLiMTs [2]; [9]) is given as “+VE (IC50 threshold of 100 µM)”. For the same molecule, the “In vivo DILI” value ([3]; ref O'Brien 2006) was “-VE” and the “In vivo DILI” value ([3]; ref Proctor 2017) was “+VE”.
For `COc1ccc2cc([C@H](C)C(=O)O)ccc2c1` [naproxen], the “Structural based (HCI)” value (HepG2 cells [5]) is listed as “-VE”, the Cluser analysis (HepG2 cells [6]) is listed as “-VE” and the “Structural based (HCI)” value (HepG2 cells [6]) is listed as “-VE”. For the same molecule, the “PHH ATP <100uM” value (PHH; [9]) was “-VE” and the “hLiMTs ATP <100uM” value (hLiMTs [2]; [9]) was “-VE”.
In the case of `Cn1c(=O)c2[nH]cnc2n(C)c1=O` [theophylline], the “Cellular toxicity (3T3 cells)” value [7] is given as “-VE”, the “Combined Assay” value [7] is given as “-VE” and the “GSH adduct HML” value [7] is given as “-VE”. The Hepatocyte cellular toxicity [7] was “-VE”, the “MitoTox 3T3” value [7] was “-VE” and the “TDI CYP3A4” value [7] was “-VE”. The hBSEP inhibition [7] was “-VE”, the “PHH ATP <100uM” value (PHH) was “-VE” and the “hLiMTs ATP <100uM” value (hLiMTs [2]) was “-VE”.
In the case of `N=C(N)NC(=O)c1nc(Cl)c(N)nc1N` [amiloride], the “DILI +VE (5-8), DILI -VE (-4)” value [1] is given as “+VE”, the DILI severity category [1] is given as “vLess-DILI-Concern” and the “hLiMTs ATP <20 x Cmax” value (PHH spheroids) is given as “-VE”. For the same molecule, the “In vivo DILI” value ([3]; in vivo) was “-VE”.
In the case of `C[C@]12CC[C@@H]3c4ccc(O)cc4CC[C@H]3[C@@H]1CC[C@@H]2O` [beta-estradiol], the “PHH ATP <100uM” value (PHH; [9]) is given as “-VE”, the “hLiMTs ATP <100uM” value (hLiMTs [2]; [9]) is given as “+VE (IC50 threshold of 100 µM)” and the “in vitro data EC2<=1x Cmax” value [4] is given as “-VE”. The “in vitro data EC20<=2uM” value [4] was “-VE”.
In the case of `CO[C@@H]1[C@@H](OC(N)=O)[C@@H](O)[C@H](Oc2ccc3c(O)c(NC(=O)c4ccc(O)c(CC=C(C)C)c4)c(=O)oc3c2C)OC1(C)C` [novobiocin], the “Structural based (HCI)” value (HepG2 cells [5]) is listed as “-VE”, the Cluser analysis (HepG2 cells [6]) is listed as “-VE” and the “Structural based (HCI)” value (HepG2 cells [6]) is listed as “-VE”. For the same molecule, the “Structural based (HCI)” value (human hepatocytes) was “+VE”, the “In vivo DILI” value ([3]; ref O'Brien 2006) was “+VE” and the “In vivo DILI” value ([3]; ref Persson 2013) was “+VE”. For the same molecule, the “In vivo DILI” value ([3]; ref Porceddu 2012) was “+VE”, the “In vivo DILI” value ([3]; ref Xu 2008) was “+VE” and the “in vitro data EC2<=1x Cmax” value [4] was “-VE”. The “in vitro data EC20<=2uM” value [4] was “+VE”.
In the case of `COc1cc2c(cc1OC)C(=O)C(CC1CCN(Cc3ccccc3)CC1)C2` (stereo not drawn) [donepezil], the “Inhibition of rBsep cutoff<3” value (rBsep) is listed as “-VE”, the AC50 (hLiMTs [8]; read-out: ATP endpoint AC50) is listed as 9.76 µM and the minimal effective concentration (hLiMTs [8]; read-out: ATP endpoint MEC) is listed as 3.17 µM. For the same molecule, the AC50 (hLiMTs [8]; read-out: HCS endpoint AC50) was 7.19 µM, the minimal effective concentration (hLiMTs [8]; read-out: HCS endpoint MEC) was 0.487 µM and the minimal effective concentration (HepaRG spheroids; read-out: ATP endpoint MEC) was 6.49 µM. It also gave a minimal effective concentration (HepaRG spheroids; read-out: HCS endpoint MEC) of 9.43 µM.
In the case of `[H]/N=C(/N)c1ccc(NCc2nc3cc(C(=O)N(CCC(=O)O)c4ccccn4)ccc3n2C)cc1` [dabigatran], the “Cellular toxicity (3T3 cells)” value [7] is given as “-VE”, the “Combined Assay” value [7] is given as “-VE” and the “GSH adduct HML” value [7] is given as “-VE”. For the same molecule, the Hepatocyte cellular toxicity [7] was “+VE”, the “MitoTox 3T3” value [7] was “-VE” and the “TDI CYP3A4” value [7] was “-VE”. For the same molecule, the hBSEP inhibition [7] was “+VE”, the “PHH ATP <100uM” value (PHH; [9]) was “-VE” and the “hLiMTs ATP <100uM” value (hLiMTs [2]; [9]) was “-VE”. The “In vivo DILI” value ([3]; ref Proctor 2017) was “-VE” and the “In vivo DILI” value ([3]; ref Schadt 2015) was “-VE”.
In the case of `CCOC(=O)C1=C(C)NC(C)=C(C(=O)OC)C1c1cccc(Cl)c1Cl` (stereo not drawn) [felodipine], the “DILI +VE (5-8), DILI -VE (-4)” value [1] is given as “+VE”, the DILI severity category [1] is given as “vLess-DILI-Concern” and the “PHH ATP <100uM” value (PHH) is given as “-VE”. The “hLiMTs ATP <100uM” value (hLiMTs [2]) was “-VE” and the “In vivo DILI” value ([3]; in vivo) was “-VE”.
